According to article PMC6263544, “Second-generation pterocarpanquinones: synthesis and antileishmanial activity” (The Journal of Venomous Animals and Toxins Including …, 2018):
“Also recorded” adds a separate entry of the source.

What was measured:
[1] = Macrophage toxicity test (resazurin); format: cell-based, Swiss mice; settings: mouse; peritoneal macrophages of Swiss mice, 72 h, resazurin, Mean ± SEM; read-out: Murine Macrophage CC50
Protocol: (§1) To evaluate the toxicity of pterocarpanquinones 2a-f, peritoneal macrophages of Swiss mice (2 × 10^6/mL) were incubated with pterocarpanquinones (1.25–100 μM) for 72 h at 37 °C/5% CO2. Viability was evaluated with resazurin assay as described for the antipromastigote test. The 50% cytotoxicity concentration (CC50) was determined by nonlinear regression analysis in the software GraphPad Prism 5.

[2] = system: L. amazonensis promastigotes; experiment: Antipromastigote test, L. amazonensis; format: cell-based, Leishmania amazonensis; settings: for IC50: Leishmania amazonensis, 72 h, resazurin, Mean ± SEM, read-out: L. amazonensis Promastigote IC50
Protocol: New cultures of promastigotes were obtained from infected Balb/C mice. […] A stock solution of the compounds was prepared at 50 mM in dimethylsulfoxide (Sigma Aldrich). The maximum solvent concentration used in the assays was 0.4% in a final volume per well of 200 μL. The cultures were initiated with 1.0 × 10^6 cells/ml and maintained at 26 °C for 72 h. Inhibition of parasitic growth was determined by cell viability indicator, resazurin [23], with excitation λ = 560 nm and emission λ = 590 nm or the number of parasites was then counted in a Neubauer chamber (experiments with L. braziliensis).

[3] = system: L. braziliensis promastigotes; experiment: Antipromastigote test, L. braziliensis; format: cell-based; settings: for IC50: Leishmania braziliensis, 72 h, parasites counted in Neubauer chamber, Mean ± SEM, read-out: L. braziliensis Promastigote IC50
Protocol: L. braziliensis (MCAN/BR/98/R619) was routinely isolated from hamster lesions and maintained as promastigotes in Schneider’s insect medium containing 20% HIFCS and 100 μg/ml gentamicin (Schering-Plough). New cultures of promastigotes were obtained from an infected hamster.
(§2) Leishmania promastigotes of three species were incubated in 96-well plates (Nunc, Roskilde, Denmark) under the conditions described above in either the absence or presence of different concentrations of pterocarpanquinones 2a-f (0-100 μM). A stock solution of the compounds was prepared at 50 mM in dimethylsulfoxide (Sigma Aldrich). The maximum solvent concentration used in the assays was 0.4% in a final volume per well of 200 μL. The cultures were initiated with 1.0 × 10^6 cells/ml and maintained at 26 °C for 72 h. Inhibition of parasitic growth was determined by cell viability indicator, resazurin [23], with excitation λ = 560 nm and emission λ = 590 nm or the number of parasites was then counted in a Neubauer chamber (experiments with L. braziliensis). The 50% inhibitory concentration (IC50) was determined by nonlinear regression analysis in the software GraphPad Prism 5.

[4] = system: L. infantum promastigotes; experiment: Antipromastigote test, L. infantum; format: cell-based, Leishmania infantum; settings: for IC50: Leishmania infantum, 72 h, resazurin, Mean ± SEM, read-out: L. infantum Promastigote IC50
Protocol: Leishmania infantum (MHOM/MA67ITMAP263) parasites were isolated from female BALB/c mice infected and cultured at 26 °C in Schneider’s insect medium supplemented with 20% HIFCS, streptomycin at 100 μg/ml and penicillin at 100 U/ml. New cultures of promastigotes were obtained from infected Balb/C mice.
as §2

[5] = system: intracellular amastigotes of L. amazonensis; experiment: Antiamastigote test, L. amazonensis in mouse peritoneal macrophages; format: cell-based, Leishmania amazonensis; settings: for L. amazonensis SI (Selective Index): CC50 in Macrophages/IC50 in intracellular amastigotes; for IC50: Leishmania amazonensis, Peritoneal macrophage, intracellular amastigotes in mouse peritoneal macrophages, 72 h, infection index, Mean ± SEM, read-out: L. amazonensis Amastigote IC50
Protocol: (§3) For the test against intracellular amastigotes of L. amazonensis and L. infantum, resident peritoneal macrophages (swiss mouse) were plated in RPMI (Sigma-Aldrich) at 2 × 10^6/mL (0.4 mL/well) in Lab-Tek eight-chamber slides (Nunc, Roskilde, Denmark) and incubated at 37 °C in 5% CO2 for 1 h. Stationary-phase L. amazonensis and L. infantum promastigotes were added at respective parasite/macrophage ratios of 3:1 and 5:1 for 4 h. After washing three times, pterocarpanquinones 2a-f at various concentrations were added for 72 h. Next, the slides were stained using an Instant Prov hematological dye system (Newprov, Curitiba, Brazil). The number of amastigotes was determined by counting at least 100 macrophages per sample.
(§4) The results were expressed as an infection index (% infected cells×number of amastigotes/total number of macrophages). The 50% inhibitory concentration (IC50) was determined by nonlinear regression analysis in the software GraphPad Prism 5.

[6] = system: intracellular amastigotes of L. braziliensis; experiment: Antiamastigote test, L. braziliensis in golden hamster macrophages; format: cell-based; settings: for L. braziliensis SI (Selective Index): CC50 in Macrophages/IC50 in intracellular amastigotes; for IC50: Leishmania braziliensis, Peritoneal macrophage, intracellular amastigotes in golden hamster peritoneal macrophages, 72 h, infection index, Mean ± SEM, read-out: L. braziliensis Amastigote IC50
Protocol: Macrophages of golden hamsters were used in assays against intracellular amastigotes of L. braziliensis due to the natural resistance of mice. Resident macrophages were obtained from the peritoneal cells of golden hamsters after a peritoneal injection of 10 mL of Dulbecco’s Modified Eagle’s medium (DMEM) (Sigma-Aldrich). The peritoneal macrophages were plated onto glass coverslips placed within the wells of a 24-well culture plate and incubated at 37 °C in 5% CO2 for 1 h. After removing the nonadherent cells, the monolayers were infected with stationary-phase L. braziliensis promastigotes at a 5:1 parasite/macrophage ratio for 4 h. The infected macrophages were washed and incubated with several pterocarpanquinone concentrations (0-25 μM) for 72 h. The monolayers were then stained with Giemsa, and at least 100 infected macrophages per sample were counted under optical microscopy.
as §4

[7] = system: intracellular amastigotes of L. infantum; experiment: Antiamastigote test, L. infantum in mouse peritoneal macrophages; format: cell-based, Leishmania infantum; settings: for IC50: Leishmania infantum, Peritoneal macrophage, intracellular amastigotes in mouse peritoneal macrophages, infection index, Mean ± SEM, read-out: L. infantum Amastigote IC50; for IC50 / activity against L. infantum amastigotes (in words): 72 h; for activity against L. infantum amastigotes (in words): intracellular amastigotes; for L. infantum SI (Selective Index): CC50 in Macrophages/IC50 in intracellular amastigotes
Protocol: as §3, §4

[8] = system: promastigotes of L. infantum; experiment: Mitochondrial membrane potential (ΔΨm) test (rhodamine 123, flow cytometry); format: cell-based, Leishmania infantum; settings: for Δѱm index of variation (IV): Rh123, IV = (MT − MC)/MC, mean ± SD; for effect on ΔΨm (in words): rhodamine 123, flow cytometry
Protocol: To determine the effect of pterocarpanquinones 2a-f on the ΔΨm, promastigotes of L. infantum (5 × 10^6 cells/mL) were incubated in the presence of 0–5 μM of derivatives at 26 °C. After 4 h, the parasites were incubated for 15 min with 10 μg/mL rhodamine 123 (Rh123) (Sigma-Aldrich). Data acquisition of 10,000 events and analysis were performed using the flow cytometer FACSCalibur (Becton-Dickinson, Rutherford, NJ, USA). Alteration in ΔΨm was quantified using an index of variation (IV) obtained by the eq. IV = (MT − MC)/MC [24], where MT is the median of the fluorescence of Rh123 for treated parasites and MC is the median of the fluorescence of the control parasites. Negative IV values correspond to depolarization of the mitochondrial membrane. The FCCP (Carbonyl cyanide-p-Trifluoromethoxyphenylhydrazone) 20 μM was used as positive control.

[9] = system: promastigotes of L. infantum; experiment: Measurement of reactive oxygen species (H2DCFDA); format: cell-based, Leishmania infantum; settings: 1.25–5.0 μM; for ROS production, dependence on concentration: 4 h; for Early ROS production after 4 h of treatment: compared with control
Protocol: Intracellular ROS levels were measured in treated and untreated cells as described previously. Briefly, 1 × 10^7 promastigotes/mL of L. infantum were incubated in Schneider’s insect medium supplemented with 20% HIFCS at 26 °C with concentrations of pterocarpanquinones 2a-f ranging from 0 to 5 μM in the presence of 20 μM H2DCFDA (Molecular Probes, Eugene, OR, USA). The fluorescence was monitored at 1 h intervals for 4 h using 485 and 530 nm as excitation and emission wavelengths, respectively, using the spectrofluorometer Spectra Max Gemini XPS (Molecular Devices, Silicon Valley, CA, USA). Antimycin A 10 μM was used as positive control.

[10] = system: peritoneal macrophages of Swiss mice; experiment: Macrophage toxicity test (resazurin); format: cell-based
Protocol: as §1

[11] = 1.25 μM, 4 h, negative = depolarization
[12] = 2.5 μM, 4 h, negative = depolarization

Row | Compound | CC50 at 72 h [1] | IC50 [2] | IC50 [3] | IC50 [4] | L. amazonensis SI (Selective Index) [5] | IC50 [5] | L. braziliensis SI (Selective Index) [6] | IC50 [6] | IC50 [7] | Δѱm index of variation (IV) [8, 11] | Δѱm index of variation (IV) [8, 12] | ROS production, dependence on concentration [9] | further results
1 | O=C1C2=C(C(=O)c3ccccc31)[C@H]1CCc3ccccc3[C@H]1O2 (relative stereo) [LQB 187 (2a)] | 49.3 ± 1.1 µM | 1050 ± 210 nM | 23.1 ± 1.63 µM | 1200 ± 200 nM | 54.7 | 900 ± 100 nM | 5.0 | 9.85 ± 1.37 µM | > 25 µM | −0.103 ± 0.16 | −0.368 ± 0.03 |  | 
2 | COc1ccc2c(c1)CC[C@@H]1C3=C(O[C@H]21)C(=O)c1ccccc1C3=O (relative stereo) [LQB 474 (2e)] | 14.9 ± 1.43 µM | 500 ± 70 nM | 12.3 ± 0.45 µM | 2200 ± 300 nM | 5.74 | 2600 ± 800 nM | 1.74 | 8.53 ± 1.12 µM | > 10 µM | −0.582 ± 0.1 | −0.701 ± 0.01 | only increased ROS production when the parasite was incubated with the highest concentration of 5 μM | effect on ΔΨm (in words) ([8]; 4 h): greater depolarization
3 | COc1ccc2c(c1)[C@H]1OC3=C(C(=O)c4ccccc4C3=O)[C@H]1CC2 (relative stereo) [LQB 475 (2f)] |  | 400 ± 60 nM | 10.5 ± 1.01 µM | 1400 ± 700 nM | 23.76 | 2100 ± 400 nM | 5.53 | 9.02 ± 1.64 µM | > 40 µM | −0.668 ± 0.01 | −0.707 ± 0.01 |  | effect on ΔΨm (in words) ([8]; 4 h): greater depolarization
4 | N#CC(C#N)=NNc1ccc(OC(F)(F)F)cc1 [FCCP, Carbonyl cyanide-p-Trifluoromethoxyphenylhydrazone, reference compound] |  |  |  |  |  |  |  |  |  |  |  |  | Δѱm index of variation (IV) ([8]; 20 μM (positive control)): −0.727 ± 0.01
5 | O=C1C2=C(C(=O)c3ccccc31)[C@H]1COc3cc4c(cc3[C@H]1O2)OCO4 [LQB 168 (2d)] | 77.7 ± 1.1 µM | 1370 ± 40 nM | 28.2 ± 1.61 µM | 2000 ± 400 nM | 172.6 | 450 ± 60 nM | 11.03 | 7.04 ± 2.29 µM | > 50 µM | −0.369 ± 0.08 | −0.194 ± 0.18 |  | fold higher CC50 than LQB-118 (less cytotoxic) ([10]; peritoneal macrophages, CC50 77.7 μM vs 18.46 μM): 4.2 fold; activity against L. infantum amastigotes (in words) [7]: no significant activity
6 | O=C1C2=C(C(=O)c3ccccc31)[C@H]1COc3ccccc3[C@H]1O2 [LQB 182 (2b)] | 16.9 ± 1.2 µM | 1080 ± 200 nM | 11 ± 1.25 µM | 1000 ± 300 nM | 19.8 | 850 ± 20 nM | 2.15 | 7.84 ± 2.46 µM | 3.6 ± 0.9 µM | −0.397 ± 0.07 | −0.402 ± 0.04 | increased ROS generation dependent on compound concentration | improvement of activity, 2b in comparison to 1 ([2]; promastigotes of L. amazonensis): about 1.6 times; decrease in antileishmanial activity, 2b in comparison to 1 ([3]; promastigotes of L. braziliensis): 3.2 times; activity relative to deoxy derivative 2a ([3]; promastigotes of L. braziliensis, listed as 2b): approximately twice as active; also recorded: approximately two times more active; improvement of activity, 2b in comparison to 1 ([4]; promastigotes of L. infantum): ~4 times; improvement of activity, 2b in comparison to 1 ([5]; amastigotes of L. amazonensis): about 1.6 times; L. infantum SI (Selective Index) [7]: 4.69; activity against L. infantum amastigotes (in words) [7]: the only one active; Early ROS production after 4 h of treatment ([9]; listed as 2b): induction of increased ROS production
7 | O=C1C2=C(C(=O)c3ccccc31)[C@H]1COc3ccc(Cl)cc3[C@H]1O2 [LQB 236 (2c)] | 43.9 ± 0.6 µM | 1150 ± 180 nM | 17.9 ± 1.12 µM | 1800 ± 300 nM | 73.16 | 600 ± 130 nM | 5.26 | 8.34 ± 1.47 µM | > 25 µM | −0.360 ± 0.16 | −0.258 ± 0.17 | only increased ROS production when the parasite was incubated with the highest concentration of 5 μM | increased cytotoxicity when compared to 2b ([10]; macrophages): 2.6 times; Early ROS production after 4 h of treatment ([9]; listed as 2c): induction of increased ROS production
8 | N=C(N)c1ccc(OCCCCCOc2ccc(C(=N)N)cc2)cc1 [Pentamidine, reference compound] | 8.5 ± 1.25 µM | 4800 ± 90 nM | 13 ± 0.04 µM | 5700 ± 120 nM | 4.47 | 1900 ± 100 nM | 1.1 | 7.7 ± 2.4 µM | 0.4 ± 0.2 µM |  |  |  | L. infantum SI (Selective Index) [7]: 21.25
